ChEMBL document CHEMBL2346598, “Synthesis and pharmacological characterization of 2-(acylamino)thiophene derivatives as metabolically stable, orally effective, positive allosteric modulators of the GABAB receptor” (J Med Chem, 2013)
Calls of active or inactive are those of the source. The calls are words filed in the database; no cut-off is given here.

What was measured:
Mus musculus [1] = test: Hypnotic effect in DBA mouse assessed as increase in pentobarbital-induced duration of loss of righting reflex at 300 mg/kg, ip incubated for 30 mins prior to pentobarbital-challenge; assay type: functional; details: route intraperitoneal
Mus musculus [2] = test: Hypnotic effect in ip dosed DBA mouse assessed as increase in baclofen-induced duration of loss of righting reflex incubated for 30 mins prior to baclofen-challenge; assay type: functional, organism-based
Mus musculus [3] = test: Hypnotic effect in DBA mouse assessed as reduction in pentobarbital-induced onset of loss of righting reflex at 100 mg/kg, ip incubated for 30 mins prior to pentobarbital-challenge (reference value: 60.0 +/- 0.0 min); assay type: functional; details: route intraperitoneal
Mus musculus [4] = test: Hypnotic effect in ip dosed DBA mouse assessed as reduction in baclofen-induced onset of loss of righting reflex incubated 30 mins prior to baclofen-challenge; assay type: functional, organism-based
Mus musculus [5] = test: Hypnotic effect in DBA mouse assessed as potentiation of baclofen-induced loss of righting reflex at 10 mg/kg, ip incubated for 30 mins prior to baclofen-challenge; assay type: functional, organism-based; set-up: dose 10 mg/kg
[6] = Drug metabolism in mouse liver microsomes at 5 uM after 60 mins by LC/MS/MS analysis; assay type: ADME, Microsome; details: read-out: Drug metabolism
[7] = (§1) Positive allosteric modulation of GABAB receptor in rat cortical membranes assessed as potentiation of GABA-induced [35S]GTPgammaS binding after 30 mins by liquid scintillation counting analysis; assay type: functional, cell membranes, Membrane
Rattus norvegicus [8] = species on record: Rattus norvegicus; test: Positive allosteric modulation of GABAB receptor in rat cortical membranes assessed as stimulation of [35S]GTPgammaS binding up to 100 uM after 30 mins by liquid scintillation counting analysis; assay type: functional, cell membranes; details: Membrane
Rattus norvegicus [9] = species on record: Rattus norvegicus; test: Positive allosteric modulation of GABAB receptor in rat cortical membranes assessed as potentiation of GABA-induced [35S]GTPgammaS binding at 2.5 uM after 30 mins by liquid scintillation counting analysis relative to GABA; assay type: functional, cell membranes; details: Membrane
Mus musculus [10] = test: Hypnotic effect in DBA mouse assessed as reduction in baclofen-induced onset of loss of righting reflex over 10 mg/kg, ip incubated for 30 mins prior to baclofen-challenge relative to vehicle-treated control; assay type: functional, organism-based; set-up: dose 10 mg/kg
[11] = Elimination rate constant in mouse liver microsomes at 5 uM after 60 mins by LC/MS/MS analysis; assay type: ADME, Microsome
Mus musculus [12] = test: Hypnotic effect in DBA mouse assessed as reduction in pentobarbital-induced onset of loss of righting reflex at 300 mg/kg, ip incubated for 30 mins prior to pentobarbital-challenge (reference value: 60.0 +/- 0.0 min); assay type: functional; details: route intraperitoneal
Mus musculus [13] = test: Hypnotic effect in DBA mouse assessed as potentiation of pentobarbital-induced loss of righting reflex at 100 mg/kg, ip incubated for 30 mins prior to pentobarbital-challenge; assay type: functional, organism-based; set-up: dose 100 mg/kg
Mus musculus [14] = test: Hypnotic effect in DBA mouse assessed as reduction in pentobarbital-induced onset of loss of righting reflex at 30 mg/kg, ip incubated for 30 mins prior to pentobarbital-challenge (reference value: 60.0 +/- 0.0 min); assay type: functional; details: route intraperitoneal
Mus musculus [15] = test: Hypnotic effect in ip dosed DBA mouse assessed as potentiation of pentobarbital-induced loss of righting reflex incubated for 30 mins prior to pentobarbital-challenge; assay type: functional, organism-based
Plasma = test: Metabolic stability in mouse plasma at 5 uM after 30 mins by HPLC-MS analysis; assay type: ADME, cell-free; details: 0.5 h
Mus musculus [16] = test: Hypnotic effect in DBA mouse assessed as increase in baclofen-induced duration of loss of righting reflex over 3 mg/kg, ip incubated for 30 mins prior to baclofen-challenge relative to vehicle-treated control; assay type: functional, organism-based; set-up: dose 3 mg/kg
Mus musculus [17] = test: Hypnotic effect in DBA mouse assessed as potentiation of pentobarbital-induced loss of righting reflex at 30 mg/kg, ip incubated for 30 mins prior to pentobarbital-challenge; assay type: functional, organism-based; set-up: dose 30 mg/kg
[18] = Intrinsic clearance in mouse liver microsomes assessed per mg protein at 5 uM after 60 mins by LC/MS/MS analysis; assay type: ADME, Microsome; details: read-out: CLH
Mus musculus [19] = test: Hypnotic effect in DBA mouse assessed as potentiation of baclofen-induced loss of righting reflex at 30 mg/kg, ip incubated for 30 mins prior to baclofen-challenge; assay type: functional, organism-based; set-up: dose 30 mg/kg
Mus musculus [20] = test: Hypnotic effect in DBA mouse assessed as increase in pentobarbital-induced duration of loss of righting reflex at 100 mg/kg, ip incubated for 30 mins prior to pentobarbital-challenge; assay type: functional; details: route intraperitoneal
NIH3T3 = test: Cytotoxicity against mouse NIH/3T3 cells after 24 hrs by neutral red staining-based UV/visible spectrophotometric analysis; assay type: cell-based; details: NIH3T3, 24 h
Mus musculus [21] = test: Hypnotic effect in DBA mouse assessed as potentiation of pentobarbital-induced loss of righting reflex at 300 mg/kg, ip incubated for 30 mins prior to pentobarbital-challenge; assay type: functional, organism-based; set-up: dose 300 mg/kg
Mus musculus [22] = test: Hypnotic effect in DBA mouse assessed as potentiation of baclofen-induced loss of righting reflex at 1 mg/kg, ip incubated for 30 mins prior to baclofen-challenge; assay type: functional, organism-based; set-up: dose 1 mg/kg
Mus musculus [23] = test: Hypnotic effect in DBA mouse assessed as increase in pentobarbital-induced duration of loss of righting reflex at 30 mg/kg, ip incubated for 30 mins prior to pentobarbital-challenge; assay type: functional; details: route intraperitoneal
Mus musculus [24] = test: Hypnotic effect in DBA mouse assessed as potentiation of baclofen-induced loss of righting reflex at 100 mg/kg, ip incubated for 30 mins prior to baclofen-challenge; assay type: functional, organism-based; set-up: dose 100 mg/kg
Mus musculus [25] = test: Hypnotic effect in DBA mouse assessed as reduction in baclofen-induced onset of loss of righting reflex at 300 mg/kg, ig incubated for 30 mins prior to baclofen-challenge relative to vehicle-treated control; assay type: functional, organism-based; set-up: dose 300 mg/kg
Rattus norvegicus [26] = species on record: Rattus norvegicus; test: Positive allosteric modulation of GABAB receptor in rat cortical membranes assessed as potentiation of GABA-induced [35S]GTPgammaS binding at 30 uM after 30 mins by liquid scintillation counting analysis relative to GABA; assay type: functional, cell membranes; details: Membrane
Rattus norvegicus [27] = species on record: Rattus norvegicus; test: Positive allosteric modulation of GABAB receptor in rat cortical membranes assessed as potentiation of GABA-induced [35S]GTPgammaS binding at 25 uM after 30 mins by liquid scintillation counting analysis relative to GABA; assay type: functional, cell membranes; details: Membrane
Mus musculus [28] = test: Hypnotic effect in DBA mouse assessed as potentiation of baclofen-induced loss of righting reflex at 300 mg/kg, ig incubated for 30 mins prior to baclofen-challenge; assay type: functional, organism-based; set-up: dose 300 mg/kg
Mus musculus [29] = test: Hypnotic effect in DBA mouse assessed as increase in baclofen-induced duration of loss of righting reflex at 300 mg/kg, ig incubated for 30 mins prior to baclofen-challenge relative to vehicle-treated control; assay type: functional, organism-based; set-up: dose 300 mg/kg
Mus musculus [30] = test: Hypnotic effect in DBA mouse assessed as potentiation of baclofen-induced loss of righting reflex at 3 mg/kg, ip incubated for 30 mins prior to baclofen-challenge; assay type: functional, organism-based; set-up: dose 3 mg/kg
Mus musculus [31] = test: Hypnotic effect in DBA mouse assessed as potentiation of baclofen-induced loss of righting reflex at 300 mg/kg, ip incubated for 30 mins prior to baclofen-challenge; assay type: functional, organism-based; set-up: dose 300 mg/kg
Mus musculus [32] = test: Hypnotic effect in DBA mouse assessed as reduction in baclofen-induced onset of loss of righting reflex at 100 to 300 mg/kg, ip incubated for 30 mins prior to baclofen-challenge relative to vehicle-treated control; assay type: functional, organism-based
Rattus norvegicus [33] = species on record: Rattus norvegicus; test: as §1; assay type: functional, cell membranes; details: Membrane
Mus musculus [34] = test: Hypnotic effect in DBA mouse assessed as increase in baclofen-induced duration of loss of righting reflex at 100 to 300 mg/kg, ip incubated for 30 mins prior to baclofen-challenge relative to vehicle-treated control; assay type: functional, organism-based

| Structure (SMILES) | Time (Mus musculus [1]) [min] | Activity (Mus musculus [2]) | Time (Mus musculus [3]) [min] | Activity (Mus musculus [4]) | Activity (Mus musculus [5]) | metabolised at 1 h, 5 µM [6] [%] | Activity (Rattus norvegicus [8]) | Activity (Rattus norvegicus [9]) [%] | k el at 1 h, 5 µM [11] [s⁻¹] | Time (Mus musculus [12]) [min] | Activity (Mus musculus [13]) | Time (Mus musculus [14]) [min] | Stability (Plasma) | Activity (Mus musculus [17]) | microsomal CLint at 5 µM [18] [µL/min/mg] | Activity (Mus musculus [19]) | Time (Mus musculus [20]) [min] | IC50 (NIH3T3) [µM] | Activity (Mus musculus [21]) | Activity (Mus musculus [22]) | also measured |
| --- | --- | --- | --- | --- | --- | --- | --- | --- | --- | --- | --- | --- | --- | --- | --- | --- | --- | --- | --- | --- | --- |
| CCc1c(C)sc(NC(=O)c2ccc(C(F)(F)F)cc2)c1C(=O)OC | 23.3 | Dose-dependent effect | 45.2 | Dose-dependent effect | Active | 40 | inactive | 17.8 | 0.000192 | 31.3 | inactive | 54 | Unstable | inactive | 12 | Active | 7 | 54 | Active | Active | EC50 [7]: 0.28 µM; Activity (Mus musculus [10]): Active; Activity (Mus musculus [15]): Dose-dependent effect; Activity (Mus musculus [16]): Active; Time (Mus musculus [23]): 2.3 min; Activity (Mus musculus [24]): Active; Activity (Mus musculus [25]): Active; Emax (Rattus norvegicus [26]): 60%; Activity (Rattus norvegicus [27]): 27.3%; Activity (Mus musculus [28]): Active; Activity (Mus musculus [29]): Active; Activity (Mus musculus [30]): Active; Activity (Mus musculus [31]): Active |
| CCc1c(C)sc(NC(=O)c2ccc(C)cc2)c1C(=O)OC | 14 | Dose-dependent effect | 43.8 | Dose-dependent effect | Active | 28 | inactive | 3.7 | 0.000124 | 26.7 | inactive | 53.3 | Unstable | inactive | 7.73 | Active | 11.2 | 95 | Active | inactive | Activity (Mus musculus [32]): Active; Activity (Rattus norvegicus [33]): inactive; Time (Mus musculus [23]): 4.7 min; Activity (Mus musculus [24]): Active; Activity (Mus musculus [34]): Active; Activity (Mus musculus [25]): Active; Activity (Rattus norvegicus [27]): 18.2%; Activity (Mus musculus [28]): Active; Activity (Mus musculus [29]): Active; Activity (Mus musculus [30]): Active; Activity (Mus musculus [31]): Active |
